Assay results taken from paper PMC9570599, “Kribbellichelins A and B, Two New Antibiotics from Kribbella sp. CA-293567 with Activity against Several Human Pathogens” (Molecules, 2022).
pIC50: −log10 of the molar value. ≈ marks a conversion by molar mass, not a printed value. Where “and” joins values, the source holds several entries; their conditions need not be identical. Identical values can stand only once. Entries after “also recorded” stand apart in the source; their conditions may differ. Like-named read-outs stand apart in the source and are kept apart here. Each block holds one compound with its values, some of them ahead of it.

Experiments:
[1] = system: A. fumigatus ATCC-46645; assay: Antifungal growth inhibition assay, A. fumigatus; assay type: cell-based, Aspergillus fumigatus; settings: for inhibition at 7.2 µg/mL / IC50: Aspergillus fumigatus; for inhibition at 7.2 µg/mL: at 7.2 µg/mL (optimal concentration), atypical profile, Eagle effect, read-out: maximum inhibition against A. fumigatus; for decreasing inflection point against A. fumigatus: less inhibition at higher concentrations (Eagle effect)
Description: (§1) Purification fractions and purified compounds 1–3 and 5 were tested against a wide panel of antimicrobial assays for the growth inhibition of human pathogens including MRSA MB-5393, A. baumannii MB-5973, P. aeruginosa MB-5919, A. fumigatus ATCC-46645, and C. albicans ATCC-64124 as 10-point curves with 1:2 dilutions starting at 128 μg/mL in duplicate, following previously described methodologies. Most of the pathogens were acquired from the American Type Culture Collection (ATCC)(Manassas, VA, USA), except for those already present in our MEDINA bacteria collection (MB). Pathogen panel investigated was selected according to typical reference strains and procedures indicated by the […].
(§2) The antifungal assay was performed following this methodology; briefly, a thawed stock inoculum suspension from a cryovial of A. fumigatus and C. albicans was streaked onto PDA and Sabouraud Dextrose Agar medium, respectively, and suspended in RPMI-1640 modified medium and incubated at 37 °C for 24 h. Spores concentration of A. fumigatus was determined by counting in Neubauer chamber in order to dilute the culture and obtain an assay inoculum of 2.5 × 10^4 spores/mL. For C. albicans, the OD660 was adjusted to 0.25 using RPMI-1640 modified as diluent and blank. Then, a dilution from the adjusted inoculum was prepared at 1/100 to inoculate 96-well assay plates.
(§3) For the assay, 90 μL/well of the diluted inoculum was mixed with 1.6 μL/well of compound dissolved in DMSO and 8.4 μL/well of MHII or BHI medium for Gram-negative and Gram-positive strains, respectively. Vancomycin was included as an internal plate control for MRSA. A rifampicin, aztreonam, and amphotericin B dose-response curve was used as a positive control against P. aeruginosa, A. baumannii and A. fumigatus, and C. albicans, respectively. Each compound was tested as a 10-point dose-response curve by 1:2 serial dilutions in DMSO starting at 128 µg/mL in duplicate. Total growth was measured using the EnVision® (Redwood City, CA, USA) Multilabel plate reader (Perkin Elmer) with two readings, one at initial time and one after which the microorganism was incubated at 37 °C for 18–20 hours. For the A. fumigatus assay, total growth was measured with a single reading after the incubation.

[2] = system: MRSA MB-5393; assay: Gram-positive antibacterial growth inhibition assay, MRSA; assay type: cell-based, methicillin-resistant Staphylococcus aureus; settings: for activity against MRSA (in words): pure compound, up to 128 µg/mL
Description: as §1
For Gram-positive MRSA, a thawed stock inoculum suspension from a cryovial of this microorganism was streaked onto brain heart infusion (BHI) agar plate and incubated at 37 °C overnight to obtain isolated colonies. Single colonies were inoculated into 10 mL of BHI broth medium in 250 mL Erlenmeyer flask and incubated overnight at 37 °C with shaking at 220 rpm and then diluted in order to obtain an assay inoculum of 1.1 × 10^6 CFU/mL [52].
as §3

[3] = system: A. baumannii MB-5973; assay: Gram-negative antibacterial growth inhibition assay, A. baumannii; assay type: cell-based, Acinetobacter baumannii; settings: for maximum activity of growth inhibition plateau, A. baumannii: at concentrations higher than 10 µg/mL; for activity against A. baumannii (in words): pure compound, up to 128 µg/mL
Description: as §1
(§4) Gram-negative antibacterial assay was performed following this procedure; thawed stock inoculum from vials was streaked onto MHII agar plates and incubated overnight at 37 °C. Isolated colonies were selected and inoculated in 25 mL of MHII liquid growth medium in 250 mL Erlenmeyer flasks overnight at 37 °C. MHII liquid growth medium was used in a 96-well plate assay, adjusting at 5 × 10^5 colony forming units (cfu)/mL (OD600 nm).
as §3

[4] = system: P. aeruginosa MB-5919; assay: Gram-negative antibacterial growth inhibition assay, P. aeruginosa; assay type: cell-based, Pseudomonas aeruginosa; settings: for maximum activity of growth inhibition plateau, P. aeruginosa: at concentrations higher than 10 µg/mL; for activity against P. aeruginosa (in words): pure compound, up to 128 µg/mL
Description: as §1, §4, §3

[5] = system: human hepatoma cell line HepG2 (ATCC HB-8065); assay: MTT cytotoxicity bioassay; assay type: cell-based; settings: 72 h; for cytotoxicity against HepG2 (in words): up to 40 µg/mL
Description: Pure compounds were assayed against the human hepatoma cell line HepG2 (ATCC HB-8065) in an MTT test as 20-point curves with 1:2 dilutions starting at 40 μg/mL in triplicate. Cells were seeded at 10.000 cells/well in a 96-well plate (Corning 96-well TC-treated microplates) for 24 h and after addition of compounds 1–3 and 5 plates were incubated for 72 h. MMS (methylmethanesulfonate, Sigma-Aldrich, 4 mM) was used as the positive control, and DMSO 0.5% as the negative control. After addition of MMT dye (thiazolyl blue tetrazoliumbromide, ACROS Organics), cells were incubated for 2–3 h and supernatant was removed. Resulting formazan crystals were finally dissolved by means of 100 µL DMSO (100%) and absorbance was measured at 570 nm. The obtained data was analyzed using Genedata Screener software (Genedata, Inc., Basel, Switzerland) and Prim 9.4.1 software, from GraphPad was used for titrations representation.

[6] = system: C. albicans ATCC-64124; assay: Antifungal growth inhibition assay, C. albicans; assay type: cell-based, Candida albicans; settings: for pIC50: molar value in brackets
Description: as §1, §2, §3

[7] = system: Bacillus subtilis; set-up: method as in PMID 8436549; settings: previously reported; cited from earlier work
[8] = system: S. aureus; set-up: method as in PMID 8436549; settings: previously reported; cited from earlier work
[9] = system: Streptococcus faecalis; set-up: method as in PMID 8436549; settings: previously reported; cited from earlier work
[10] = system: Saccharomyces cerevisiae; set-up: method as in PMID 28074052; settings: previously reported; cited from earlier work

Structure (SMILES): COC(=O)c1cc(O)c(O)c(C(=O)NCCC(=O)N[C@@H](CCCN(O)C(=O)[C@H](CO)NC(=O)CCNC(=O)c2nc(C(=O)OC)cc(O)c2O)C(=O)OC)n1 [Compound 2, kribbellichelin B]
inhibition at 7.2 µg/mL ([1]; ATCC46645): 40% | decreasing inflection point against A. fumigatus [1]: ~50 µg/mL | activity against MRSA (in words) [2]: no activity | maximum activity of growth inhibition plateau, A. baumannii [3]: 45% | activity against A. baumannii (in words) [3]: minor inhibitory properties | maximum activity of growth inhibition plateau, P. aeruginosa [4]: 30% | activity against P. aeruginosa (in words) [4]: minor inhibitory properties | cytotoxicity against HepG2 (in words) [5]: nor significant cytotoxic activity; also recorded: no relevant cytotoxicity

Structure (SMILES): CC(C)[C@H]1C(=O)OC[C@@H](NC(=O)c2nc3ccccc3cc2O)C(=O)N2CCCC[C@H]2C(=O)NCC(=O)N(C)CC(=O)N(C)[C@@H](C(C)C)C(=O)OC[C@@H](NC(=O)c2nc3ccccc3cc2O)C(=O)N2CCCC[C@@H]2C(=O)NCC(=O)N(C)CC(=O)N1C [Compound 3, sandramycin]
IC50 ([6]; Candida albicans, ATCC64124, read-out: IC50 versus C. albicans): 7.55 µg/mL and 6.19 µM | IC50 ([1]; ATCC46645, read-out: IC50 against A. fumigatus): 5.72 µg/mL and 4.69 µM | IC50 ([2]; Staphylococcus aureus, MRSA, read-out: IC50 versus MRSA MB-5393): 0.31 µg/mL and 250 nM | activity against A. baumannii (in words) [3]: no antibacterial activity | activity against P. aeruginosa (in words) [4]: no antibacterial activity | ED50 cytotoxic activity against HepG2 ([5]; molar value in brackets): 0.00129 µM | antibiotic activity versus Bacillus subtilis (in words) [7]: strong antibiotic activity | antibiotic activity versus S. aureus (in words) [8]: strong antibiotic activity | antibiotic activity versus Streptococcus faecalis (in words) [9]: strong antibiotic activity

IC50 versus C. albicans ([6]; C. albicans ATCC-64124, 10-point curve from 128 µg/mL, duplicate): 11.72 µg/mL (≈ 15.3 µM) | pIC50 ([6]; C. albicans ATCC-64124, read-out: IC50 versus C. albicans): 4.82 | IC50 ([6]; Candida albicans, ATCC64124, C. albicans ATCC-64124, 10-point curve from 128 µg/mL, duplicate, read-out: IC50 versus C. albicans): 11.7 µg/mL | pIC50 ([6]; Candida albicans, ATCC64124, C. albicans ATCC-64124, read-out: IC50 versus C. albicans): 4.82
Structure (SMILES): COC(=O)c1cc(O)c(O)c(C(=O)NCCC(=O)N[C@@H](CCCN(O)C(=O)[C@H](CO)NC(=O)CCNC(=O)c2nc(C(=O)OC)cc(O)c2O)C(=O)O)n1 [Compound 1, kribbellichelin A]
inhibition at 7.2 µg/mL ([1]; ATCC46645): 40% | decreasing inflection point against A. fumigatus [1]: ~50 µg/mL | activity against MRSA (in words) [2]: no activity | maximum activity of growth inhibition plateau, A. baumannii [3]: 45% | activity against A. baumannii (in words) [3]: minor inhibitory properties | maximum activity of growth inhibition plateau, P. aeruginosa [4]: 30% | activity against P. aeruginosa (in words) [4]: minor inhibitory properties | cytotoxicity against HepG2 (in words) [5]: nor significant cytotoxic activity; also recorded: no relevant cytotoxicity

IC50 ([1]; ATCC46645, A. fumigatus ATCC-46645, read-out: IC50 against A. fumigatus): 13.7 µg/mL (≈ 20.8 µM)
Structure (SMILES): CC(C)CCCCCCCCCCCCCOC[C@@H](O)CO[C@H]1O[C@H](C(=O)O)[C@@H](O[C@H]2O[C@H](CO)[C@@H](O)[C@H](O)[C@H]2O)[C@H](O)[C@H]1O [Compound 5, kribelloside C]
activity against C. albicans (in words) ([6]; pure compound, up to 128 µg/mL): no activity; also recorded: not observed | activity against MRSA (in words) [2]: no activity | activity against A. baumannii (in words) [3]: no activity | activity against P. aeruginosa (in words) [4]: no activity | cytotoxicity against HepG2 (in words) [5]: no relevant cytotoxicity | antifungal activity versus Saccharomyces cerevisiae (in words) [10]: interesting activities as an antifungal agent
